EP0326329B1, “Quinazoline derivatives useful as insecticides” (Dow AgroSciences LLC, priority 1988, dated 1989)

Tests used:
Type in all cases: in vivo
[1] = system: Erysiphe graminis tritici (powdery mildew); test: Greenhouse Test 1, foliar spray fungicide screen (POWD MDEW), host wheat; details: disease control rating, 400 ppm (+++ at 100 ppm)
[2] = system: Pyricularia oryzae (rice blast); details: disease control rating, foliar spray, host rice; 400 ppm (+++ at 100 ppm)
[3] = system: Puccinia recondita tritici (leaf rust); test: Greenhouse Test 1, foliar spray fungicide screen (LEAF RUST), host wheat; details: disease control rating, 400 ppm (+++ at 100 ppm)
[4] = system: Botrytis cinerea (gray mold); test: Greenhouse Test 1, foliar spray fungicide screen (GRAY MOLD), host grape berries; details: disease control rating, 400 ppm (+++ at 100 ppm)
[5] = system: Pseudoperonospora cubensis (downy mildew); test: Greenhouse Test 1, foliar spray fungicide screen (DOWN MDEW), host squash; details: disease control rating, 400 ppm (+++ at 100 ppm)
[6] = system: Cercospora beticola (leaf spot); test: Greenhouse Test 1, foliar spray fungicide screen (LEAF SPOT), host sugar beet; details: disease control rating, 400 ppm (+++ at 100 ppm)
[7] = system: Venturia inaequalis (apple scab); test: Greenhouse Test 1, foliar spray fungicide screen (APPL SCAB), host apple seedling; details: disease control rating, 400 ppm (+++ at 100 ppm)
[8] = system: Septoria tritici (leaf blotch); test: Greenhouse Test 1, foliar spray fungicide screen (LEAF BLOT), host wheat; details: disease control rating, 400 ppm (+++ at 100 ppm)
[9] = system: Southern corn rootworm (Diabrotica undecimpuctata howardi Barber); test: Mite/insect screen, soil treatment (CRW); details: Diabrotica, soil, read-out: CRW RESULTS %
Procedure, shortened: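 Compounds dissolved in acetone/alcohol (50:50) with Toximul R/S emulsifiers, diluted with water. Soil (15 g, with presoaked corn seed) treated with 1 mL test solution, dried 6–12 h, then five 2–3 instar larvae added; held at 23°C. Percent mortality and phytotoxicity scored after standard exposure periods.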

[10] = system: southern armyworm (Spodopetra eridania Cramer); test: Mite/insect screen, sprayed squash leaves (SAW); details: Spodoptera eridania, read-out: SAW RESULTS %
Procedure, shortened: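 For the armyworm test, two uninfested sprayed leaves were excised, once dry for an hour, and placed in a Petri dish holding larvae. Spray solutions came from an emulsifier-containing 50:50 acetone/alcohol formulation diluted with water and were applied to runoff.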

[11] = system: Twospotted spider mites (Tetranychus urticae Koch); test: Mite/insect screen, sprayed squash cotyledons (SM); details: Tetranychus urticae, read-out: SM RESULTS %
Procedure, shortened: (§1)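 Steps: formulate compound in acetone/alcohol 50:50 carrying emulsifiers; dilute with water; spray leaves until runoff on upper and lower surfaces; air-dry one hour; for armyworm, excise two […] leaves into a dish of larvae; after exposure, score mortality and plant injury.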

[12] = system: melon aphids (Aphis gossypii Glover); test: Mite/insect screen, sprayed squash cotyledons (MA); details: Aphis gossypii, read-out: MA RESULTS %
Procedure, shortened: as §1

Erysiphe graminis hordei = test: Fungicide field tests; details: crop: barley
Excerpt: (§2) Selected compounds were field tested on various crops against a variety of pathogens. […]

[13] = system: Erysiphe graminis tritici; test: Fungicide field tests; details: crop: wheat
Excerpt: as §2

Erysiphe sp. = test: Fungicide field tests; details: crop: sugar beet
Excerpt: as §2

Plasmopara viticola = test: Fungicide field tests; details: crop: grape
Excerpt: as §2

[14] = system: Pseudocercosporella herpotrichoides; test: Fungicide field tests; details: crop: wheat
Excerpt: as §2

Pyrenophora teres = test: Fungicide field tests; details: crop: barley
Excerpt: as §2

Rhynchosporium secalis = test: Fungicide field tests; details: crop: barley
Excerpt: as §2

Sphaerotheca fuliginea = test: Fungicide field tests; details: crop: cucumber
Excerpt: as §2

Dawson-hop aphid = test: Mite and insect field trials; details: plant: hops
Protocol: (§3) 4-[2-[4-(t-butyl)phenyl]ethoxy]quinazoline and 4-[2-(1,1'-biphenyl)-4 biphenyl)-4-ylethoxy]quinazoline were evaluated against a variety of mite and insect species in field trials.

European red mite = test: Mite and insect field trials; details: plant: apples
Protocol: as §3

apple aphid = test: Mite and insect field trials; details: plant: apples
Protocol: as §3

apple rust mite = test: Mite and insect field trials; details: plant: apples
Protocol: as §3

bean aphid = test: Mite and insect field trials; details: plant: bean, faba broad
Protocol: as §3

black citrus aphid = test: Mite and insect field trials; details: plant: lemon
Protocol: as §3

cereal aphid = test: Mite and insect field trials; details: plant: barley
Protocol: as §3

citrus rust mite = test: Mite and insect field trials; details: tested on grapefruit
Protocol: as §3

cotton aphid = test: Mite and insect field trials; details: plant: cotton
Protocol: as §3

grape leafhopper = test: Mite and insect field trials; details: plant: grape (European)
Protocol: as §3

grape thrips = test: Mite and insect field trials; details: plant: grape (European)
Protocol: as §3

green cloverworm = test: Mite and insect field trials; details: plant: alfalfa (Lucerne)
Protocol: as §3

green peach aphid = test: Mite and insect field trials
Protocol: as §3

greenhouse thrips = test: Mite and insect field trials; details: plant: azaleas
Protocol: as §3

pea aphid = test: Mite and insect field trials
Protocol: as §3

potato aphid = test: Mite and insect field trials; details: plant: turnip
Protocol: as §3

potato leafhopper = test: Mite and insect field trials; details: plant: alfalfa (Lucerne)
Protocol: as §3

rosy apple aphid = test: Mite and insect field trials; details: plant: apples
Protocol: as §3

tarnished plant bug = test: Mite and insect field trials; details: plant: alfalfa (Lucerne)
Protocol: as §3

thrips = test: Mite and insect field trials; details: plant: privet
Protocol: as §3

twospotted spider mite = test: Mite and insect field trials
Protocol: as §3

wheat aphid = test: Mite and insect field trials; details: plant: wheat
Protocol: as §3

white apple leafhopper = test: Mite and insect field trials; details: plant: apples
Protocol: as §3

yellow hickory aphid = test: Mite and insect field trials; details: plant: pecan nut
Protocol: as §3

With `CC(C)(C)c1ccc(CCOc2ncnc3ccccc23)cc1` [Example 2, 4-[2-[4-(t-butyl)phenyl]ethoxy]quinazoline] the “POWD MDEW” value [1] was “++ (++ = 90-100% control at 400 ppm)”, the “RICE BLAST” value [2] was “+++ (+++ = 90-100% control at 100 ppm)” and the “LEAF RUST” value [3] was “+++ (+++ = 90-100% control at 100 ppm)”. For the same compound, the “GRAY MOLD” value [4] was “- (- = 0-19% control at 400 ppm)”, the “DOWN MDEW” value [5] was “+++ (+++ = 90-100% control at 100 ppm)” and the “LEAF SPOT” value [6] was “++ (++ = 90-100% control at 400 ppm)”. The “APPL SCAB” value [7] was “+ (+ = 20-89% control at 400 ppm)”, the “LEAF BLOT” value [8] was “+ (+ = 20-89% control at 400 ppm)” and the mortality at 12 ppm [9] was 0%. The mortality at 24 ppm [9] was 0%, the mortality at 200 ppm [10] was 0% and the mortality at 400 ppm [10] was 20%. For the same compound, the mortality at 200 ppm [11] was 100%, the mortality at 400 ppm [11] was 90% and the mortality at 200 ppm [12] was 90%. The mortality at 400 ppm [12] was 80%, the “pathogen against which compound demonstrated activity in field tests” value (from here on “pathogen”) (Erysiphe graminis hordei) was “Erysiphe graminis hordei” and the “pathogen” value [13] was “Erysiphe graminis tritici”. For the same compound, the “pathogen” value (Erysiphe sp.) was “Erysiphe sp”, the “pathogen” value (Plasmopara viticola) was “Plasmopara viticola” and the “pathogen” value [14] was “Pseudocercosporella herpotrichoides”. For the same compound, the “pathogen” value (Pyrenophora teres) was “Pyrenophora teres”, the “pathogen” value (Rhynchosporium secalis) was “Rhynchosporium secalis” and the “pathogen” value (Sphaerotheca fuliginea) was “Sphaerotheca fuliginea”. For the same compound, the “mite or insect species against which they showed activity in field trials” value (“mite or insect species” below) (Dawson-hop aphid) was “Dawson-hop aphid”, the “mite or insect species” value (European red mite) was “European red mite” and the “mite or insect species” value (apple aphid) was “apple aphid”. The “mite or insect species” value (apple rust mite) was “apple rust mite”, the “mite or insect species” value (bean aphid) was “bean aphid” and the “mite or insect species” value (black citrus aphid) was “black citrus aphid”. The “mite or insect species” value (cereal aphid) was “cereal aphid”, the “activity against citrus rust mite in field trials” value (citrus rust mite) was “showing activity” and the “mite or insect species” value (cotton aphid) was “cotton aphid”. The “mite or insect species” value (grape leafhopper) was “grape leafhopper”, the “mite or insect species” value (grape thrips) was “grape thrips” and the “mite or insect species” value (green cloverworm) was “green cloverworm”. For the same compound, the “mite or insect species” value (green peach aphid; plant: apples) was “green peach aphid”, the “mite or insect species” value (green peach aphid; plant: sugar beet) was “green peach aphid” and the “mite or insect species” value (greenhouse thrips) was “greenhouse thrips”. The “mite or insect species” value (pea aphid; plant: alfalfa (Lucerne)) was “pea aphid”, the “mite or insect species” value (pea aphid; plant: pea, garden (English)) was “pea aphid” and the “mite or insect species” value (potato aphid) was “potato aphid”. For the same compound, the “mite or insect species” value (potato leafhopper) was “potato leafhopper”, the “mite or insect species” value (rosy apple aphid) was “rosy apple aphid” and the “mite or insect species” value (tarnished plant bug) was “tarnished plant bug”. For the same compound, the “mite or insect species” value (thrips) was “thrips”, the “mite or insect species” value (twospotted spider mite; plant: azaleas) was “twospotted spider mite” and the “mite or insect species” value (twospotted spider mite; plant: broccoli) was “twospotted spider mite”. For the same compound, the “mite or insect species” value (twospotted spider mite; plant: plum (Japanese)) was “twospotted spider mite”, the “mite or insect species” value (wheat aphid) was “wheat aphid” and the “mite or insect species” value (white apple leafhopper) was “white apple leafhopper”. For the same compound, the “mite or insect species” value (yellow hickory aphid) was “yellow hickory aphid”.
